Test system: Ba/F3 ETV6-NTRK2 cells
Experiment: Proliferation of Ba/F3 ETV6-NTRK2 cells (CellTiter-Glo)
Type: cell-based
Conditions: Mus musculus, BaF3; Table 2; 72 hours
Source text: Ba/F3 ETV6-NTRK2 cell is a stable transgenic cell line constructed by KYinno Biotechnology Co., Ltd. on mouse primary B cell Ba/F3 wherein NTRK2 is highly expressed and fused with ETV6 to form ETV6-NTRK2. • [Test method]: Promega's CellTiter-Glo® Luminescent Cell Viability Assay kit was used to evaluate the inhibitory activity of the compounds on the proliferation of Ba/F3 ETV6-NTRK2C cells. • [Instrument]: Spectramax M3 multifunctional microplate reader from Molecular Devices. • [Test materials]: Ba/F3 ETV6-NTRK2 cell line (constructed by KYinno Biotechnology Co., Ltd. (Beijing)), 96-well transparent flat-bottomed black-walled cell culture plate (Corning, cat #3603), RPMI-1640 media (GE, cat #SH30027.01), fetal bovine serum FBS (Thermo Fisher, cat #10099-141), CellTiter-Glo® Luminescent Cell Viability Assay kit (Promega, cat #G7572), PBS (Solarbio, cat #P1020), DMSO (Sigma, cat #D2650). • [Experimental procedure]: When resuscitating Ba/F3 ETV6-NTRK2 cells, the freezing tube was quickly shaken in a 37° C. water bath to melt within 1 minute. The thawed cell suspension was mixed uniformly with RPMI1640 medium containing 10% FBS, centrifuged at 1000 rpm for 5 minutes, and the supernatant discarded. 5 mL of complete medium (RPMI1640 medium with 10% FBS) was taken to resuspend the cell pellets, charged into a cell culture flask with a bottom area of 25 cm^2, and incubated in a cell incubator at 37° C., 95% humidity and 5% CO2. Cells were allowed to passage when the number of cells reached about 10^6 cells/mL. For cell passage, the old cell suspension was directly pipetted evenly, 1/5 of the cell suspension was kept, 4 mL of new complete medium was added, and after pipetting evenly, the cell flask was placed in the cell incubator for further culturing. Cell plating was performed when the number of cells reached about 10^6 cells/mL again. For cell plating, 1/5 of the cell suspension was kept for further culturing as in the cell passage method, and the remaining 4/5 of the cell suspension was placed in a 15 mL centrifuge tube, detected for cell viability by Trypan blue exclusion method to ensure that cell viability was above 90%. A cell suspension with a density of 5.56×10^4 viable cells/mL was prepared with complete medium, and 90 μL of such cell suspension was added to a 96-well cell culture plate to obtain a cell density of 5000 viable cells/mL in the cell culture plate. A control group containing no cells, no compound and only complete medium (i.e, culture medium control) and a control group containing no compound but containing cells (i.e, cell control) were set. The cell plate was placed in a cell incubator overnight. The 10 mM compound stock solution in DMSO was first serially diluted with DMSO at a dilution factor of 3.16 times, to obtain 9 concentrations, and the 10th concentration was set as DMSO control without compound. Then, PBS was used to dilute the DMSO solutions of compounds of different concentrations, at a dilution factor of 100 times, so that the DMSO concentration in the compound solution of each concentration was 1%. Finally, 10 μL of each of the above solutions was added to the corresponding cell culture plate, so that the initial compound concentration was 10 μM, with the remaining concentrations being successively diluted at a dilution factor of 3.16 times, and the DMSO content in the cell culture plate was 0.1%. The cell plate was placed in a cell incubator and cultured for 72 hours. For endpoint detection, the CellTiter-Glo reagent was melted, and the cell plate was moved to room temperature to equilibrate for 30 minutes, added with 100 μL of CellTiter-Glo for each well, and shaken on an orbital shaker for 5 minutes to fully lyse the cells. The plate was kept at room temperature for 20 minutes to stabilize the luminescence signal, and the luminescence value of each well was scanned with a multi-functional microplate reader at full wavelength. • [Test sample]

SMILES	IC50 [nM]
CC(C)c1ccc(C(=O)Nc2ccc(Oc3cc4cnn(C)c4cc3-c3cn[nH]c3)c(F)c2)c(=O)n1-c1ccc(F)cc1 [Example 6, N-(3-fluoro-4-(1-methyl-6-(1H-pyrazol-4-yl)-1H-indazol-5-yloxy)phenyl)-1-(4-fluorophenyl)-6-isopropyl-2-oxo-1,2-dihydropyridine-3-carboxamide]	209
O=C(Nc1cnn2ccc(N3CCC[C@@H]3c3cc(F)ccc3F)nc12)N1CC[C@H](O)C1 [LOXO-101, Larotrectinib, reference compound]	69
Cn1ncc2cc(Oc3ccc(NC(=O)c4ccc(C(F)(F)F)n(-c5ccc(F)cc5)c4=O)cc3F)c(-c3cn[nH]c3)cc21 [Example 1, N-(3-fluoro-4-(1-methyl-6-(1H-pyrazol-4-yl)-1H-indazol-5-yloxy)phenyl)-1-(4-fluorophenyl)-6-trifluoromethyl-2-oxo-1,2-dihydmpyridine-3-carboxamide monomethanesulfonate]	428
Cn1ncc2cc(Oc3ccc(NC(=O)c4ccc(C5CC5)n(-c5ccc(F)cc5)c4=O)cc3F)c(-c3cn[nH]c3)cc21 [Example 2, N-(3-fluoro-4-(1-methyl-6-(1H-pyrazol-4-yl)-1H-indazol-5-yloxy)phenyl)-1-(4-fluorophenyl)-6-cyclopropyl-2-oxo-1,2-dihydmpyridine-3-carboxamide]	269
Cc1ccc(C(=O)Nc2ccc(Oc3cc4cnn(C)c4cc3-c3cn[nH]c3)c(F)c2)c(=O)n1-c1ccc(F)cc1 [Merestinib, reference compound]	211

The next lines start with the values.

IC50 [nM]	SMILES
876	Cc1ccc(C(=O)Nc2ccc(Oc3cc4cnn(C(C)C)c4cc3-c3cn[nH]c3)c(F)c2)c(=O)n1-c1ccc(F)cc1 [Example 4, N-(3-fluoro-4-(1-isopropyl-6-(1H-pyrazol-4-yl)-1H-indazol-5-yloxy)phenyl)-1-(4-fluorophenyl)-6-methyl-2-oxo-1,2-dihydmpyridine-3-carboxamide]
341	CCn1ncc2cc(Oc3ccc(NC(=O)c4ccc(C)n(-c5ccc(F)cc5)c4=O)cc3F)c(-c3cn[nH]c3)cc21 [Example 3, N-(3-fluoro-4-(1-ethyl-6-(1H-pyrazol-4-yl)-1H-indazol-5-yloxy)phenyl)-1-(4-fluorophenyl)-6-methyl-2-oxo-1,2-dihydmpyridine-3-carboxamide]
128	CCc1ccc(C(=O)Nc2ccc(Oc3cc4cnn(C)c4cc3-c3cn[nH]c3)c(F)c2)c(=O)n1-c1ccc(F)cc1 [Example 5, N-(3-fluoro-4-(1-methyl-6-(1H-pyrazol-4-yl)-1H-indazol-5-yloxy)phenyl)-1-(4-fluorophenyl)-6-ethyl-2-oxo-1,2-dihydropyridine-3-carboxamide]

— patent US11952364B2, “TRK inhibitors useful as anticancer drugs” (TYLIGAND BIOSCIENCE (SHANGHAI) LIMITED, priority 2018, dated 2024)
